For one experiment, the target named is T1, human BACE1(1-460):Fc (Homo sapiens, UniProt P56817).
T1 construct: made in house; host or cells: HEK293 (transient, secreted into conditioned media, Protein A purified)
The experiment in a line: BACE1 FRET Assay. In kind it is biochemical. The following applies: purified recombinant huBACE1:Fc, n=6, mean±SEM. The protocol: (§1) To assess BACE1 selectivity over BACE2, the test compound is evaluated in FRET-based enzymatic assays using specific substrates for BACE1 and BACE2 as described below. For in vitro enzymatic and cellular assays, the test compound is prepared in DMSO to make up a 10 mM stock solution. The stock solution is serially diluted in DMSO to obtain a ten-point dilution curve with final compound concentrations ranging from 10 μM to 0.05 nM in a 96-well round-bottom plate before conducting the in vitro enzymatic and whole cell assays.
Human BACE1 (accession number: AF190725) and human BACE2 (accession number: AF 204944) are cloned from total brain cDNA by RT-PCR. The nucleotide sequences corresponding to amino acid sequences #1 to 460 are inserted into the cDNA encoding human IgG1 (Fc) polypeptide (Vassar et al., Science, 286, 735-742 (1999)). […]
(§2) Conditioned media of HEK293 cell transiently transfected with huBACE1:Fc or huBACE2:Fc cDNA are collected. […] The purity of final product is assessed by electrophoresis in 4-20% Tris-Glycine SDS-PAGE. […]
Serial dilutions of the test compounds are prepared as described above. […] The RFU of the mixture at time 0 is recorded at excitation wavelength 355 nm and emission wavelength 460 nm, after brief mixing on a plate shaker. […] The RFU at the end of incubation is recorded with the same excitation and emission settings used at time 0. […]

The target of a further experiment is T2, human BACE2 (1-460):Fc (Homo sapiens, UniProt Q9Y5Z0).
T2 construct: made in house; host or cells: HEK293 (transient, secreted into conditioned media, Protein A purified)
T2 sequence (Q9Y5Z0 21-460): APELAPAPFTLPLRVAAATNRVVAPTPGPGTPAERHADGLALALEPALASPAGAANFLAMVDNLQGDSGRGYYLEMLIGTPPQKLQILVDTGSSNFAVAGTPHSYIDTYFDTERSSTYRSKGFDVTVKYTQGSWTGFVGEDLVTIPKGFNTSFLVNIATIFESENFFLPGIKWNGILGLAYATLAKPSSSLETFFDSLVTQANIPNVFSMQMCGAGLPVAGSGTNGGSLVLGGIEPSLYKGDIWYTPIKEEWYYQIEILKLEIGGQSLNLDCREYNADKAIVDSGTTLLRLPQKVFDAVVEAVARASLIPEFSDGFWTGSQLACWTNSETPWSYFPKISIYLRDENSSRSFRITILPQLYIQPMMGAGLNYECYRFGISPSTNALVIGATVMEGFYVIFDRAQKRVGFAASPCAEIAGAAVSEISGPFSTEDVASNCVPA
In words: BACE2 TMEM27 FRET Assay. It counts as biochemical. The protocol:
as §1
Human BACE1 (accession number: AF190725) and human BACE2 (accession number: AF 204944) are cloned from total brain cDNA by RT-PCR. […]
as §2
Transmembrane protein 27 (TMEM27) (Accession Number NM_020665), also known as Collectrin) is a recently described substrate for BACE2, but not BACE1 (Esterhazy, et al, Cell Metabolism, 14, 365-377 (2011)). […] The RFU of the mixture at time 0 is recorded at excitation wavelength 430 nm and emission wavelength 535 nm. […] The RFU at the end of incubation is recorded with the same excitation and emission settings used at time 0. […]

The next experiment addresses T3, BACE1 (Homo sapiens, UniProt P56817).
T3 construct: endogenous in cells; host or cells: SH-SY5Y (ATCC CRL2266) stably expressing human APP695Wt
The experiment in a line: SH-SY5YAPP695Wt Whole Cell Assay (Abeta ELISA). In kind it is cell-based. To be noted: SH-SY5YAPP695Wt cells, 24 hours. The protocol: as §1
The routine whole cell assay for the measurement of inhibition of BACE1 activity utilizes the human neuroblastoma cell line SH-SY5Y (ATCC Accession No. CRL2266) stably expressing a human APP695Wt cDNA. Cells are routinely used up to passage number 6 and then discarded.
SH-SY5YAPP695Wt cells are plated in 96 well tissue culture plates at 5.0×10^4 cells/well in 200 μL culture media (50% MEM/EBSS and Ham's F12, 1× each sodium pyruvate, non-essential amino acids and Na bicarbonate containing 10% FBS). The following day, media is removed from the cells, fresh media added then incubated at 37° C. for 24 hours in the presence/absence of test compound at the desired concentration range.
At the end of the incubation, conditioned media are analyzed for evidence of beta-secretase activity by analysis of Abeta peptides 1-40 and 1-42 by specific sandwich ELISAs. […]

The next experiment has as its target T4, beta-secretase (Mus musculus, UniProt P56818).
T4 construct: from tissue; host or cells: brain (hippocampus, cortex) of young female PDAPP mice, in vivo
The experiment in a line: In Vivo Inhibition of Beta-Secretase (brain Abeta 1-x, PDAPP mice). To be noted: young female PDAPP mice, three hours, vs vehicle; for Abeta 1-x peptide levels reduced in brain cortex: p<0.01. The source says: Several animal models, including mouse, guinea pig, dog, and monkey, may be used to screen for inhibition of beta-secretase activity in vivo following compound treatment. Animals used in this invention can be wild type, transgenic, or gene knockout animals. For example, the PDAPP mouse model, prepared as described in Games et al., Nature 373, 523-527 (1995), and other non-transgenic or gene knockout animals are useful to analyze in vivo inhibition of Abeta and sAPPbeta production in the presence of inhibitory compounds. Generally, 2 month old PDAPP mice, gene knockout mice or non-transgenic animals are administered compound formulated in vehicles, such as corn oil, beta-cyclodextran, phosphate buffers, PHARMASOLVE®, or other suitable vehicles via oral, subcutaneous, intra-venous, feeding, or other route of administration. One to twenty-four hours following the administration of compound, animals are sacrificed, and brains are removed for analysis of Abeta 1-x. “Abeta 1-x” as used herein refers to the sum of Abeta species that begin with residue 1 and end with a C-terminus greater than residue 28. This detects the majority of Abeta species and is often called “total Abeta”. Total Abeta peptides (Abeta 1-x) levels are measured by a sandwich ELISA, using monoclonal 266 as a capture antibody and biotinylated 3D6 as reporting antibody. (See May, et al., Journal of Neuroscience, 31, 16507-16516 (2011)).
For acute studies, compound or appropriate vehicle is administered and animals are sacrificed at about 3 hours after dosing. Brain tissue, is obtained from selected animals and analyzed for the presence of Abeta 1-x. After chronic dosing brain tissues of older APP transgenic animals may also be analyzed for the amount of beta-amyloid plaques following compound treatment.
For Example 1, three hours following a 3, 10, and 30 mg/kg oral dose of the compound to young female PDAPP mice, Abeta 1-x peptide levels are reduced approximately 22%, 42%, and 51% in brain hippocampus and 26%, 43%, and 59% in brain cortex p<0.01, compared to vehicle-treated mice.

Each structure is given as a SMILES string. Like-named read-outs stand apart in the source and are kept apart here.

T4 sequence (P56818 46-501): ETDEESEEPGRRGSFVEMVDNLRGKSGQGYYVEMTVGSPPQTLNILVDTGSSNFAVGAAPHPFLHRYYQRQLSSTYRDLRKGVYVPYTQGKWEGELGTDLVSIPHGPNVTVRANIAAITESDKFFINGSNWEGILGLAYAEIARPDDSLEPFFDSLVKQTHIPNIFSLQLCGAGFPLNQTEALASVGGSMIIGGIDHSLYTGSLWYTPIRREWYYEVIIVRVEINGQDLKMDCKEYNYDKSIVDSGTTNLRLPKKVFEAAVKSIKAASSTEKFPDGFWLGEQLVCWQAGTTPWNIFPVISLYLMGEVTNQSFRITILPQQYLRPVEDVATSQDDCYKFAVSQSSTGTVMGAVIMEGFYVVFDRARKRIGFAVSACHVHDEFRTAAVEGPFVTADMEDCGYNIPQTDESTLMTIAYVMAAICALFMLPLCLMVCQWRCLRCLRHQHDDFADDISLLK
T3 sequence (P56817 46-501): as the sequence (P56818 46-501) above, with S6P, I162V, I165L, T180S, A182V, V340I, A393L, H443Q counted along it
T1 sequence (P56817 22-460): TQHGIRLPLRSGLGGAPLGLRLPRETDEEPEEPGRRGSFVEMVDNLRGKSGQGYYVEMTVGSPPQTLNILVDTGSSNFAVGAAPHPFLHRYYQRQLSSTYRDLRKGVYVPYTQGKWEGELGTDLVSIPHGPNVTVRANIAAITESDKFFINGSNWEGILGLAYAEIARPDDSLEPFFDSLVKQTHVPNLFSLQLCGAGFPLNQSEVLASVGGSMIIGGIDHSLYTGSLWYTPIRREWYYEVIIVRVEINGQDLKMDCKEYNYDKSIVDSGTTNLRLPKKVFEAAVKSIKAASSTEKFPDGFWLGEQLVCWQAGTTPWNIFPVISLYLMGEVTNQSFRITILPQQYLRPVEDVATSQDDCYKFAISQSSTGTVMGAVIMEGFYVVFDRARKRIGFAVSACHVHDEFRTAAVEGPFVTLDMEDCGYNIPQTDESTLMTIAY

For `NC1=N[C@@]2(c3cc(NC(=O)c4cnc(-n5cncn5)cn4)ccc3F)C[C@@H](OC3CC3)C[C@H]2CS1` [Example 1, N-[3-[(4aR,6S,7aS)-2-Amino-6-(cyclopropoxy)-4a,5,6,7-tetrahydro-4H-cyclopenta[d][1,3]thiazin-7a-yl]-4-fluoro-phenyl]-5-(1,2,4-triazol-1-yl)pyrazine-2-carboxamide], the IC50 at human BACE1(1-460):Fc is 955 ± 93 pM; at human BACE2 (1-460):Fc (huBACE2:Fc, TMEM27 FRET substrate, n=4, mean±SEM) it was 87300 ± 11100 pM; on BACE1 (n=3, mean±SEM, read-out: IC50 SH-SY5YAPP695Wt A-beta (1-42) ELISA), 430 ± 80 pM; at BACE1 (n=4, mean±SEM, read-out: IC50 SH-SY5YAPP695Wt A-beta (1-40) ELISA), 380 ± 140 pM. Besides, the “ratio of BACE2 IC50 (TMEM27 FRET) to BACE1 IC50 (FRET)” value on human BACE2 (1-460):Fc (selectivity for BACE1 over BACE2) is listed as “about 91 fold”. The “Abeta 1-x peptide levels reduced in brain hippocampus” value was “approximately 22%” at beta-secretase (3 mg/kg oral), around 42% on beta-secretase (10 mg/kg oral) and around 51% on beta-secretase (30 mg/kg oral). In addition, the “Abeta 1-x peptide levels reduced in brain cortex” value on beta-secretase (3 mg/kg oral) is listed as around 26%; at beta-secretase (10 mg/kg oral) it was around 43%; on beta-secretase (30 mg/kg oral), around 59%.
